# Measured values taken from PubChem BioAssay (NCI).
#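 Protocol summary: plate cells (96-well), add compound at 5 concentrations, incubate 48 h, interpolate endpoints linearly. Abbreviation: GI50, concentration required for 50% inhibition of growth. TGI marks complete inhibition of growth.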
# How the values were obtained:
# Test in all cases: growth of human tumour cells (NCI), 48 h
# 786-0 renal = tested on: 786-0 renal
# A498 renal = tested on: A498 renal
# A549 NSCLC = tested on: A549 NSCLC
# ACHN renal = tested on: ACHN renal
# BT-549 breast = tested on: BT-549 breast
# CAKI-1 renal = tested on: CAKI-1 renal
# CCRF-CEM leukemia = tested on: CCRF-CEM leukemia
# COLO 205 colon = tested on: COLO 205 colon
# DU-145 prostate = tested on: DU-145 prostate
# EKVX NSCLC = tested on: EKVX NSCLC
# HCC-2998 colon = tested on: HCC-2998 colon
# HCT-116 colon = tested on: HCT-116 colon
# HCT-15 colon = tested on: HCT-15 colon
# HL-60(TB) leukemia = tested on: HL-60(TB) leukemia
# HOP-62 NSCLC = tested on: HOP-62 NSCLC
# HOP-92 NSCLC = tested on: HOP-92 NSCLC
# HS 578T breast = tested on: HS 578T breast
# HT29 colon = tested on: HT29 colon
# IGROV1 ovarian = tested on: IGROV1 ovarian
# K-562 leukemia = tested on: K-562 leukemia
# KM12 colon = tested on: KM12 colon
# LOX IMVI melanoma = tested on: LOX IMVI melanoma
# M14 melanoma = tested on: M14 melanoma
# MALME-3M melanoma = tested on: MALME-3M melanoma
# MCF7 breast = tested on: MCF7 breast
# MDA-MB-231 breast = tested on: MDA-MB-231 breast
# MDA-MB-435 = tested on: MDA-MB-435
# MDA-MB-468 breast = tested on: MDA-MB-468 breast
# MOLT-4 leukemia = tested on: MOLT-4 leukemia
smiles,measurement,setting,value
COc1ccc(-c2ccnc(SCc3cc4cc(Cl)ccc4[nH]c3=O)n2)cc1,GI50,786-0 renal,15.1 µM
same,TGI,786-0 renal,36.5 µM
same,GI50,A498 renal,17.5 µM
same,TGI,A498 renal,46.2 µM
same,GI50,A549 NSCLC,15.6 µM
same,TGI,A549 NSCLC,> 100 µM
same,GI50,ACHN renal,5.64 µM
same,TGI,ACHN renal,19.8 µM
same,GI50,BT-549 breast,6.21 µM
same,TGI,BT-549 breast,33.2 µM
same,GI50,CAKI-1 renal,7.7 µM
same,TGI,CAKI-1 renal,27.1 µM
same,GI50,CCRF-CEM leukemia,16 µM
same,TGI,CCRF-CEM leukemia,> 100 µM
same,GI50,COLO 205 colon,44.8 µM
same,TGI,COLO 205 colon,> 100 µM
same,GI50,DU-145 prostate,10.2 µM
same,TGI,DU-145 prostate,24.2 µM
same,GI50,EKVX NSCLC,12.2 µM
same,TGI,EKVX NSCLC,64.9 µM
same,GI50,HCC-2998 colon,27.6 µM
same,TGI,HCC-2998 colon,> 100 µM
same,GI50,HCT-116 colon,14 µM
same,TGI,HCT-116 colon,> 100 µM
same,GI50,HCT-15 colon,29 µM
same,TGI,HCT-15 colon,> 100 µM
same,GI50,HL-60(TB) leukemia,> 100 µM
same,TGI,HL-60(TB) leukemia,> 100 µM
same,GI50,HOP-62 NSCLC,3.45 µM
same,TGI,HOP-62 NSCLC,16.6 µM
same,GI50,HOP-92 NSCLC,5.49 µM
same,TGI,HOP-92 NSCLC,39.8 µM
same,GI50,HS 578T breast,2.77 µM
same,TGI,HS 578T breast,9.75 µM
same,GI50,HT29 colon,53.6 µM
same,TGI,HT29 colon,> 100 µM
same,GI50,IGROV1 ovarian,27.1 µM
same,TGI,IGROV1 ovarian,> 100 µM
same,GI50,K-562 leukemia,31.2 µM
same,TGI,K-562 leukemia,> 100 µM
same,GI50,KM12 colon,19.9 µM
same,TGI,KM12 colon,> 100 µM
same,GI50,LOX IMVI melanoma,15 µM
same,TGI,LOX IMVI melanoma,> 100 µM
same,GI50,M14 melanoma,25 µM
same,TGI,M14 melanoma,> 100 µM
same,GI50,MALME-3M melanoma,4.72 µM
same,TGI,MALME-3M melanoma,27.4 µM
same,GI50,MCF7 breast,8.74 µM
same,TGI,MCF7 breast,58.1 µM
same,GI50,MDA-MB-231 breast,9.03 µM
same,TGI,MDA-MB-231 breast,32.2 µM
same,GI50,MDA-MB-435,14.4 µM
same,TGI,MDA-MB-435,> 100 µM
same,GI50,MDA-MB-468 breast,5.59 µM
same,TGI,MDA-MB-468 breast,35.9 µM
same,GI50,MOLT-4 leukemia,38.6 µM
same,TGI,MOLT-4 leukemia,> 100 µM
